From patent US7915238B2, “Immunomodulatory compounds and methods of use thereof” (Eisai R & D Management Co., Ltd., priority 1999, dated 2011)

Tested on: Human Whole Blood
Experiment: Cytokine release in human whole blood (ELISA)
Assay type: cell-based
Conditions: Homo sapiens; whole blood; vs. % of LPS at 10 ng/ml; read-out: WB ED50 vs LPS@ 10 ng/ml
Experimental: The most readily available human system to test compound activity on monocytes/macrophages is in whole blood. Various concentrations of compounds of the invention were added as 10× stocks in 50 μl of Ca^++, Mg^++-free Hank's balanced salt solution (HBSS) followed by 50 μl of HBSS into 400 μl of heparinized whole blood obtained from normal volunteers (18-51 years old; 110-230 lb.) into the wells of plastic assay plates, for a total volume of 500 μl/well (final concentration of whole blood was 80%). After a 3-hour incubation with gentle shaking at 37° C. in a 5% CO2 atmosphere, the assay plates were centrifuged at 1000×g for 10 min. at 4° C. and plasma was drawn off and frozen at −80° C. Plasma samples were analyzed for TNF-alpha, IL-10, and IL-12 by ELISA (Genzyme Corp., Cambridge, Mass.). Each assay point was tested in triplicate.
This stimulatory activity can be compared to that of 10 ng/ml endotoxin (or LPS) present in similar incubations in the same assay.

| EC50 [nM] | SMILES |
| --- | --- |
| > 10000 | CCCCCCCCCCCCCC(=O)N[C@@H](CC[N+](C)(C)CCCNC(=O)NCCC[N+](C)(C)CC[C@@H](COC(=O)C[C@@H](CCCCCCC)OC(=O)CCCCCCCCCCC)NC(=O)CCCCCCCCCCCCC)COC(=O)C[C@@H](CCCCCCC)OC(=O)CCCCCCCCCCC [compound 804947] |

Same assay, conditions: TNF-alpha release; compounds tested at 10 μM; compared to 10 ng/ml LPS; 3-hour incubation

| SMILES | TNF-alpha release in whole blood at 10 μM compound (% of 10 ng/ml LPS response) |
| --- | --- |
| CCCCCC/C=C\CCCC(=O)O[C@H](CCCCCCC)CCOCC(COP(=O)(O)OCCNC(=O)C(Cc1ccc(OCCNC(=O)CCCCC(=O)O)cc1)C(=O)NCCOP(=O)(O)OCC(COCC[C@@H](CCCCCCC)OC(=O)CCC/C=C\CCCCCC)NC(=O)CCCCCCCCCCCCC)NC(=O)CCCCCCCCCCCCC (some centres unmarked) [compound 803045] | 65 % of LPS |
| CCCCCCC=CCC=CCCCCCCC(=O)OCC(COP(=O)(O)OCC(O)COP(=O)(O)OCC(COC(=O)CCCCCCC=CCC=CCCCCCC)OC(=O)CCCCCCC=CCC=CCCCCCC)OC(=O)CCCCCCC=CCC=CCCCCCC (centres unmarked) [compound 112072] | 0 % of LPS |
| CCCCCC/C=C\CCCC(=O)O[C@H](CCCCCCC)CC(=O)NC(COCC[C@H](O)CCCCCCC)COP(=O)([O-])OCCNC(=O)c1cccc(C(=O)NCCOP(=O)([O-])OCC(COCC[C@H](O)CCCCCCC)NC(=O)C[C@@H](CCCCCCC)OC(=O)CCC/C=C\CCCCCC)c1.[Na+].[Na+] (some centres unmarked) [compound 112860] | 0 % of LPS |
| CCCCCC/C=C\CCCC(=O)O[C@H](CCCCCCC)CCOCC(COP(=O)([O-])OCCNC(=O)C(Cc1ccc(OCCN)cc1)C(=O)NCCOP(=O)([O-])OCC(COCC[C@@H](CCCCCCC)OC(=O)CCC/C=C\CCCCCC)NC(=O)CCCCCCCCCCCCC)NC(=O)CCCCCCCCCCCCC.[Na+].[Na+] (some centres unmarked) [compound 119522] | 129 % of LPS |
| CCCCCC/C=C\CCCC(=O)O[C@H](CCCCCCC)CCOCC(COP(=O)([O-])OCCNC(=O)CC(=O)NCCOP(=O)([O-])OCC(COCC[C@@H](CCCCCCC)OC(=O)CCC/C=C\CCCCCC)NC(=O)CCCCCCCCCCCCCCC)NC(=O)CCCCCCCCCCCCCCC.[Na+].[Na+] (some centres unmarked) [compound 119000] | 60 % of LPS |
| CCCCCC/C=C\CCCC(=O)O[C@H](CCCCCCC)CCOCC(COP(=O)([O-])OCCNC(=O)C(Cc1ccc(OCCNC(=O)OC(C)(C)C)cc1)C(=O)NCCOP(=O)([O-])OCC(COCC[C@@H](CCCCCCC)OC(=O)CCC/C=C\CCCCCC)NC(=O)CC(=O)CCCCCCCCCCC)NC(=O)CC(=O)CCCCCCCCCCC.[Na+].[Na+] (some centres unmarked) [compound 019772] | 69 % of LPS |
| CCCCCC/C=C\CCCC(=O)O[C@H](CCCCCCC)CCOCC(COP(=O)([O-])OCCNC(=O)C(Cc1ccc(OCCNC(=O)OC(C)(C)C)cc1)C(=O)NCCOP(=O)([O-])OCC(COCC[C@@H](CCCCCCC)OC(=O)CCC/C=C\CCCCCC)NC(=O)CCCCCCCCCCCCC)NC(=O)CCCCCCCCCCCCC.[Na+].[Na+] (some centres unmarked) [compound 119329] | 2 ± 2 (n = 2) % of LPS |
| CCCCCC/C=C\CCCC(=O)O[C@H](CCCCCCC)CC(=O)NC(COCC[C@H](O)CCCCCCC)COP(=O)([O-])OCCNC(=O)C1OC(C)(C)OC1C(=O)NCCOP(=O)([O-])OCC(COCC[C@H](O)CCCCCCC)NC(=O)C[C@@H](CCCCCCC)OC(=O)CCC/C=C\CCCCCC.[Na+].[Na+] (some centres unmarked) [compound 113634] | 0 % of LPS |
| CCCCCC/C=C\CCCC(=O)O[C@H](CCCCCCC)CC(=O)NC(COCC[C@H](O)CCCCCCC)COP(=O)([O-])OCCNC(=O)c1cc(O)cc(C(=O)NCCOP(=O)([O-])OCC(COCC[C@H](O)CCCCCCC)NC(=O)C[C@@H](CCCCCCC)OC(=O)CCC/C=C\CCCCCC)c1.[Na+].[Na+] (some centres unmarked) [compound 113635] | 0 % of LPS |
| CCCCCC/C=C\CCCC(=O)O[C@H](CCCCCCC)CCOCC(COP(=O)([O-])OCCNC(=O)CC(=O)NCCOP(=O)([O-])OCC(COCC[C@@H](CCCCCCC)OC(=O)CCC/C=C\CCCCCC)NC(=O)CCCCCCCCCCCCC)NC(=O)CCCCCCCCCCCCC.[Na+].[Na+] (some centres unmarked) [compound 118989] | 159 % of LPS |
| CCCCCC/C=C\CCCC(=O)O[C@H](CCCCCCC)CC(=O)NC(COCC[C@H](O)CCCCCCC)COP(=O)([O-])OCCNC(=O)c1ccccc1C(=O)NCCOP(=O)([O-])OCC(COCC[C@H](O)CCCCCCC)NC(=O)C[C@@H](CCCCCCC)OC(=O)CCC/C=C\CCCCCC.[Na+].[Na+] (some centres unmarked) [compound 112859] | 0 % of LPS |
| CCCCCCCCCCCCCC(=O)NC(COCC[C@@H](CCCCCCC)OC(=O)CCCCCCCCCCC)COP(=O)([O-])OCCNC(=O)NCCOP(=O)([O-])OCC(COCC[C@@H](CCCCCCC)OC(=O)CCCCCCCCCCC)NC(=O)CCCCCCCCCCCCC.[Na+].[Na+] (some centres unmarked) [compound 119327] | 165 ± 33 (n = 3) % of LPS |
| CCCCCCCCCCCC(=O)CC(=O)NC(COCC[C@H](O)CCCCCCC)COP(=O)([O-])OCCNC(=O)NCCOP(=O)([O-])OCC(COCC[C@H](O)CCCCCCC)NC(=O)CC(=O)CCCCCCCCCCC.[Na+].[Na+] (some centres unmarked) [compound 112043] | 0 % of LPS |
| CCCCCCCCCCCCCCCC(=O)OCC(COP(=O)(O)OCC(O)COP(=O)(O)OCC(COC(=O)CCCCCCCCCCCCCCC)OC(=O)CCCCCCCCCCCCCCC)OC(=O)CCCCCCCCCCCCCCC (centres unmarked) [compound 112071] | 0 % of LPS |
| CCCCCC/C=C\CCCC(=O)O[C@H](CCCCCCC)CCOCC(COP(=O)([O-])OCCNC(=O)C(CCCCN)C(=O)NCCOP(=O)([O-])OCC(COCC[C@@H](CCCCCCC)OC(=O)CCC/C=C\CCCCCC)NC(=O)CCCCCCCCCCCCC)NC(=O)CCCCCCCCCCCCC.[Na+].[Na+] (some centres unmarked) [compound 119523] | 176 % of LPS |
| CCCCCC/C=C\CCCC(=O)O[C@H](CCCCCCC)CCOCC(COP(=O)([O-])OCCNC(=O)NCCOP(=O)([O-])OCC(COCC[C@@H](CCCCCCC)OC(=O)CCC/C=C\CCCCCC)NC(=O)C[C@@H](CCCCCCC)OC(=O)CCC/C=C\CCCCCC)NC(=O)C[C@@H](CCCCCCC)OC(=O)CCC/C=C\CCCCCC.[Na+].[Na+] (some centres unmarked) [compound 112093] | 0 % of LPS |

Same assay, conditions: whole blood; (576-021) + EtOH; read-out: WB ED50 vs LPS@ 10 ng/ml

| EC50 [nM] | SMILES |
| --- | --- |
| 400 | CCCCCCCCCCCCCCN[C@@H](COCC[C@@H](CCCCCCC)OC(=O)CCCCCCCCCCC)COP(=O)(O)OCCNC(=O)NCCOP(=O)(O)OC[C@H](COCC[C@@H](CCCCCCC)OC(=O)CCCCCCCCCCC)NCCCCCCCCCCCCCC [compound 804252] |

Same assay, conditions: whole blood; vs. % of LPS at 10 ng/ml; read-out: WB ED50 vs LPS@ 10 ng/ml

| EC50 [nM] | SMILES |
| --- | --- |
| 460 | CCCCCCCCCCCCCC(=O)N[C@H](COCC[C@H](CCCCCCC)CCCCCCCCCCCC)COP(=O)(O)OCCNC(=O)NCCOP(=O)(O)OC[C@@H](COCC[C@H](CCCCCCC)CCCCCCCCCCCC)NC(=O)CCCCCCCCCCCCC [compound 804121] |
| 300 | CCCCCCCCCCCC(=O)CC(=O)N[C@H](COCC[C@@H](CCCCCCC)OC(=O)CCCCCCCCCCC)COP(=O)(O)OCCNC(=O)NCCOP(=O)(O)OC[C@H](COCC[C@@H](CCCCCCC)OC(=O)CCCCCCCCCCC)NC(=O)CC(=O)CCCCCCCCCCC [compound 804097] |
| 700 | CCCCCCCCCCCCCC(=O)N[C@H](COCC[C@@H](CCCCCCC)OC(=O)CCCCCCCCCCC)COP(=O)(O)OCCNC(=O)CC(=O)NCCOP(=O)(O)OC[C@H](COCC[C@@H](CCCCCCC)OC(=O)CCCCCCCCCCC)NC(=O)CCCCCCCCCCCCC [compound 803733] |
| 100 | CCCCCC/C=C\CCCC(=O)O[C@H](CCCCCCC)CCOCC(COP(=O)([O-])OCCNC(=O)CC(=O)NCCOP(=O)([O-])OCC(COCC[C@@H](CCCCCCC)OC(=O)CCC/C=C\CCCCCC)NC(=O)CCCCCCCCCCCCC)NC(=O)CCCCCCCCCCCCC.[Na+].[Na+] (some centres unmarked) [compound 118989] |
| 2500 | CCCCCC/C=C\CCCC(=O)O[C@H](CCCCCCC)CCOC[C@@H](COP(=O)(O)OCCNC(=O)CC(=O)NCCOP(=O)(O)OC[C@H](COCC[C@@H](CCCCCCC)OC(=O)CCC/C=C\CCCCCC)NC(=O)CC(=O)CCCCCCCCCCC)NC(=O)CC(=O)CCCCCCCCCCC [compound 804061] |
| 100 | CCCCCCCCCCCCCC(=O)N[C@H](COCC[C@@H](CCCCCCC)OC(=O)CCCCCCCCCCC)COP(=O)(O)OCCNC(=O)NCCOP(=O)(O)OC[C@H](COCC[C@@H](CCCCCCC)OC(=O)CCCCCCCCCCC)NC(=O)CCCCCCCCCCCCC [compound 803789] |
| > 10000 | CCCCCCCCCCCCCC(=O)NC(COCCC(CCCCCCC)OCCCCCCCCCCCC)COP(=O)(O)OCCCCCCCCOP(=O)(O)OCC(COCCC(CCCCCCC)OCCCCCCCCCCCC)NC(=O)CCCCCCCCCCCCC (mixture of isomers) [compound 804596] |
| 400 | CCCCCCCCCCCCCC(=O)N[C@H](COCC[C@@H](CCCCCCC)OCCCCCCCCCCCC)COP(=O)(O)OCCNC(=O)NCCOP(=O)(O)OC[C@@H](COCC[C@@H](CCCCCCC)OCCCCCCCCCCCC)NC(=O)CCCCCCCCCCCCC [compound 804372] |
| 450 | CCCCCCCCCCCCCCN[C@H](COCC[C@@H](CCCCCCC)OC(=O)CCCCCCCCCCC)COP(=O)(O)OCCNC(=O)NCCOP(=O)(O)OC[C@@H](COCC[C@@H](CCCCCCC)OC(=O)CCCCCCCCCCC)NCCCCCCCCCCCCCC [compound 804281] |
| 14 | CCCCCCCCCCCCC(O)C(=O)N[C@H](COCC[C@@H](CCCCCCC)OC(=O)CCCCCCCCCCC)COP(=O)(O)OCCNC(=O)NCCOP(=O)(O)OC[C@@H](COCC[C@@H](CCCCCCC)OC(=O)CCCCCCCCCCC)NC(=O)C(O)CCCCCCCCCCCC (some centres unmarked) [compound 804313] |

| SMILES | EC50 [nM] |
| --- | --- |
| CCCCCCCCCCCCCC(=O)NC(COCC[C@@H](CCCCCCC)OC(=O)CCCCCCCCCCC)COP(=O)([O-])OCCNC(=O)NCCOP(=O)([O-])OCC(COCC[C@@H](CCCCCCC)OC(=O)CCCCCCCCCCC)NC(=O)CCCCCCCCCCCCC.[Na+].[Na+] (some centres unmarked) [compound 119327] | 15 |
